Test results published in PubChem BioAssay (NCI).
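GI50 = concentration required for 50% inhibition of growth. At the TGI there is no net growth.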

Key:
Test in all cases: NCI tumour cell line growth inhibition, 384-well format
786-0 renal = system: 786-0 renal
ACHN renal = system: ACHN renal
BT-549 breast = system: BT-549 breast
HCT-116 colon = system: HCT-116 colon
K-562 leukemia = system: K-562 leukemia
KM12 colon = system: KM12 colon
M14 melanoma = system: M14 melanoma
MCF7 breast = system: MCF7 breast
NCI-H322M lung = system: NCI-H322M lung
OVCAR-3 ovarian = system: OVCAR-3 ovarian
OVCAR-5 ovarian = system: OVCAR-5 ovarian
RPMI-8226 leukemia = system: RPMI-8226 leukemia
UACC-62 melanoma = system: UACC-62 melanoma

Structure (SMILES): COC(=O)c1ccc2c(C(=Nc3ccc(N(C)C(=O)CN4CCN(C)CC4)cc3)c3ccccc3)c(O)[nH]c2c1
- GI50 ([…]-0 renal): 1.4 µM
- TGI (786-0 renal): 2.79 µM
- GI50 (ACHN renal): 1.36 µM
- TGI (ACHN renal): 2.89 µM
- GI50 (BT-549 breast): 1.49 µM
- TGI (BT-549 breast): 2.83 µM
- GI50 (HCT-116 colon): 1.4 µM
- TGI (HCT-116 colon): 2.72 µM
- GI50 (K-562 leukemia): 0.137 µM
- TGI (K-562 leukemia): 0.286 µM
- GI50 (KM12 colon): 0.0475 µM
- TGI (KM12 colon): 1.33 µM
- GI50 (M14 melanoma): 1.87 µM
- TGI (M14 melanoma): 3.29 µM
- GI50 (MCF7 breast): 1.32 µM
- TGI (MCF7 breast): 2.76 µM
- GI50 (NCI-H322M lung): 1.41 µM
- TGI (NCI-H322M lung): 3.36 µM
- GI50 (OVCAR-3 ovarian): 1.78 µM
- TGI (OVCAR-3 ovarian): 3.26 µM
- GI50 (OVCAR-5 ovarian): 1.3 µM
- TGI (OVCAR-5 ovarian): 2.69 µM
- GI50 (RPMI-8226 leukemia): 1.34 µM
- TGI (RPMI-8226 leukemia): 2.62 µM
- GI50 (UACC-62 melanoma): 1.9 µM
- TGI (UACC-62 melanoma): 3.32 µM
